As usually defined, the melting point is the temperature of the solid-liquid transition.

Consider 54 compounds from patent US20080242698A1, “Organic Compounds” (priority 2005, published 2008).

SMILES strings stand for the structures.

In the case of `Cl.O=C(CNCC(c1ccccc1)c1ccccc1)N1CCc2ccccc2C1`, the melting point fell in the range of 72 to 78 °C.

In the case of `CC(C)N(C(=O)CNCC(c1ccccc1)c1ccccc1)c1ccccc1.Cl`, the melting point lay in the range of 240 to 243 °C. For `CC(C)N(C(=O)CNCc1cccc2ccccc12)c1ccccc1.Cl`, the melting point was 224 to 226 °C. Next, `CC(C)N(C(=O)CNCc1ccc(Cl)c(Cl)c1)c1ccccc1.Cl`: 245 to 250 °C; `CS(=O)(=O)O.CS(=O)(=O)O.Clc1ccc(C(NCCNC(c2ccccc2)c2ccc(Cl)cc2)c2ccccc2)cc1` (stereo not drawn): 233 to 235 °C; `Cl.O=C(CNCC(c1ccccc1)c1ccccc1)N1c2ccccc2Oc2ccccc21`: 215 to 216 °C.

For `Cl.O=C(CNCC(c1ccccc1)c1ccccc1)n1c2ccccc2c2ccccc21`, the melting point was 250 °C. Next, `Cl.O=C(CNC(c1ccccc1)c1ccccc1)Nc1cccc2ccccc12`: 132 to 134 °C; `Cl.O=C(CNC(c1ccccc1)c1ccccc1)Nc1ccccc1-c1ccccc1`: 151 to 158 °C.

The compound `Cl.O=C(CNCc1ccccc1Cl)N(c1ccccc1)c1ccccc1` yielded a melting point of 213 to 214.5 °C. Next, `Cl.O=C(CNCC(c1ccccc1)c1ccccc1)N(Cc1ccccc1)c1ccccc1`: 188 to 190 °C; `Cl.O=C(CNCc1ccccc1Cl)N(Cc1ccccc1)c1ccccc1`: 190 to 192 °C; `Cl.O=C(CNC(c1ccccc1)c1ccccc1)N(Cc1ccccc1)c1ccccc1`: 181 to 182 °C. Next, `Cl.O=C(CNC(c1ccccc1)c1ccccc1)N1CCCc2ccccc21`: 191 to 194 °C; `CC(C)N(C(=O)CNC(c1ccccc1)c1ccccc1)c1ccccc1.Cl`: 241 to 243 °C; `Cc1cccc2c1N(C(=O)CNCC(c1ccccc1)c1ccccc1)CCC2.Cl`: 82 to 95 °C. The value for `Cc1cccc2c1N(C(=O)CNC(c1ccccc1)c1ccccc1)CCC2.Cl` was 128 to 136 °C; that for `Cl.O=C(CNCC(c1ccccc1)c1ccccc1)N(c1ccccc1)c1ccccc1` was 232 to 234 °C; that for `CC(CNCC(=O)N1CCCc2ccccc21)(c1ccccc1)c1ccccc1.Cl` was 210 to 212 °C. As to `Cl.O=C(CN1CCc2ccccc2C1)N1CCCc2ccccc21`, the melting point was in the range of 201 to 203 °C. Next, `Cl.O=C(CNC1CCCc2ccccc21)N1c2ccccc2C=Cc2ccccc21` (stereo not drawn): 245 to 246 °C; `Cl.O=C(CNCc1ccccc1)N(c1ccccc1)c1ccccc1`: 234 to 237 °C; `Cl.O=C(CNCc1cccc2ccccc12)N(c1ccccc1)c1ccccc1`: 233 to 235 °C. As for `Cl.O=C(CNCCC(c1ccccc1)c1ccccc1)N(c1ccccc1)c1ccccc1`, the melting point was 227 to 230 °C. The compound `Cl.O=C(CNCc1ccc(Cl)c(Cl)c1)N1c2ccccc2C=Cc2ccccc21` displayed a melting point of 244 to 249 °C.

The compound `Cl.O=C(CNCCc1ccccc1)N1c2ccccc2C=Cc2ccccc21` gave a melting point of 243 to 259 °C. Next, `Cl.O=C(CNCC(c1ccccc1)c1ccccc1)N1CCCc2ccccc21`: 174 to 178 °C; `CN(C(=O)CNCC(c1ccccc1)c1ccccc1)c1ccccc1.Cl`: 221 to 223 °C. `Cl.O=C(CNC(c1ccccc1)c1ccccc1)NCCC(c1ccccc1)c1ccccc1`: the melting point lay within 177.5 to 178.1 °C.

For the compound `Cl.O=C(CNC(c1ccccc1)c1ccccc1)NCc1ccccc1`, the melting point lay within 161.9 to 162.9 °C. `Cl.O=C(CNC1CCc2ccccc2C1)N(c1ccccc1)c1ccccc1` (stereo not drawn): the melting point is 274 to 295 °C. As to `Cl.NC(C(=O)NCC(=O)N(c1ccccc1)c1ccccc1)c1ccccc1` (stereo not drawn), the melting point was 177 to 185 °C (dec.). In turn, `Cl.N[C@@H](C(=O)NCC(=O)N1c2ccccc2C=Cc2ccccc21)c1ccccc1` showed a melting point of 179 to 185 °C. The value for `Cl.N[C@H](C(=O)NCC(=O)N1c2ccccc2C=Cc2ccccc21)c1ccccc1` was 192 to 233 °C; that for `CN(C(=O)CNCc1ccc(Cl)c(Cl)c1)c1ccccc1.Cl` was 221 to 224 °C.

For `COc1ccc(CNC(C(=O)NCc2ccccc2)c2ccccc2)cc1.O=C(O)/C=C/C(=O)O` (racemic), the melting point fell in the range of 153 to 155 °C. `CN(C)c1ccc(CNC(C(=O)NCc2ccccc2)c2ccccc2)cc1.O=C(O)/C=C/C(=O)O` (racemic): the melting point was in the range of 159 to 161 °C. Next, `Cl.O=C(NCc1ccccc1)C(NC(c1ccccc1)c1ccccc1)c1ccccc1` (racemic): 218.4 to 219.2 °C (dec.). The value for `Cl.O=C(NCc1cccc(Cl)c1)C(NC(c1ccccc1)c1ccccc1)c1ccccc1` (racemic) was 215 to 216 °C; that for `CC(CN(C)C)N1c2ccccc2CCc2ccccc21.Cl` (racemic) was 172 to 173 °C. Next, `CC1CCc2ccccc2N1C(=O)CNCC(c1ccccc1)c1ccccc1.Cl` (racemic): 212 to 215 °C; `CC(NCC(=O)N(c1ccccc1)c1ccccc1)c1ccccc1.Cl` (racemic): 232 to 236 °C; `CC(NCC(c1ccccc1)c1ccccc1)C(=O)N(c1ccccc1)c1ccccc1.Cl` (racemic): 122 to 125 °C. On to `CC(NC1Cc2ccccc2C1)C(=O)N(c1ccccc1)c1ccccc1.Cl` (racemic), for which the melting point lay in the range of 208 to 210 °C. The value for `CC(NC(c1ccccc1)c1ccccc1)C(=O)NCCC(c1ccccc1)c1ccccc1.Cl` (racemic) was 210.3 to 212 °C; that for `O=C(NCc1ccccc1)C(c1ccccc1)N(Cc1ccccc1)Cc1ccccc1` (racemic) [Example 106, rac-N-Benzyl-2-dibenzylamino-2-phenyl-acetamide] was 109 to 119.5 °C; that for `COc1cc(CNC(C(=O)NCc2ccccc2)c2ccccc2)cc(OC)c1` (racemic) [Example 112, rac-N-Benzyl-2-(3,5-dimethoxy-benzylamino)-2-phenyl-acetamide] was 107 to 108 °C. The value for `O=C(NCC(c1ccccc1)c1ccccc1)C(Cc1ccccc1)NCc1ccccn1` (racemic) [Example 136, rac-N-(2,2-Diphenyl-ethyl)-3-phenyl-2-[(pyridin-2-ylmethyl)-amino]-propion-amide] was 68 to 70 °C; that for `O=C(CNCc1ccccc1Cl)NC(c1ccccc1)c1ccccc1` [Example 5, N-Benzhydryl-2-(2-chloro-benzylamino)-acetamide] was 98 to 99 °C. Next, `O=C(CN1CCc2ccccc2C1)N(c1ccccc1)c1ccccc1` [Example 14, 2-(3,4-Dihydro-1H-isoquinolin-2-yl)-N,N-diphenyl-acetamide]: 202 to 204 °C. `O=C(CNC(c1ccccc1)c1ccccc1)N(c1ccccc1)c1ccccc1` [Example 15, 2-(Benzhydryl-amino)-N,N-diphenyl-acetamide] showed a melting point of 122 to 123 °C. Next, `CN(C(=O)CNC(c1ccccc1)c1ccccc1)c1ccccc1` [Example 24, 2-(Benzhydryl-amino)-N-methyl-N-phenyl-acetamide]: 115 to 116 °C. The value for `O=C(CNC1c2ccccc2-c2ccccc21)N1CCCc2ccccc21` [Example 31, 1-(3,4-Dihydro-2H-quinolin-1-yl)-2-(9H-fluoren-9-ylamino)-ethanone] was 82 to 84 °C. The value for `O=C(NC(C(=O)NCc1ccccc1)c1ccccc1)c1ccc2cc(C(=O)O)[nH]c2c1` (stereo not drawn) [Example 117, 6-[(Benzylcarbamoyl-phenyl-methyl)-carbamoyl]-1H-indole-2-carboxylic acid] was 258 to 260 °C.
